These results are taken from patent US11708348B2, “Protease inhibitors for treatment of coronavirus infections” (The Scripps Research Institute, priority 2021, dated 2023).

Where a name gives a salt, the structure may show the parent alone.

One experiment deals with SARS-CoV-2 strain USA-WA1/2020. Description: microbe, parasite or virus in culture. It is filed as cell-based. The note with it: Severe acute respiratory syndrome coronavirus 2, HeLa-ACE2, 24 h, HeLa-ACE2 cells, SARS-CoV-2 infection, 24 h; cells given as a bound; read-out: EC50, uM (Hela).
For the molecule `CC(C)C[C@H](NC(=O)Cc1cccc(Cl)c1)C(=O)N[C@@H](C[C@@H]1CCNC1=O)C(=O)COc1c(F)c(F)cc(F)c1F` [Compound 144, (S)-2-(2-(3-chlorophenyl)acetamido)-4-methyl-N—((S)-3-oxo-1-((S)-2-oxopyrrolidin-3-yl)-4-(2,3,5,6-tetrafluorophenoxy)butan-2-yl)pentanamide], the EC50 (as a rule, the midpoint of the concentration-response curve) is greater than 1 µM.
Regarding `COc1cccc2[nH]c(C(=O)N[C@@H](CC(C)C)C(=O)N[C@@H](C[C@@H]3CCNC3=O)C(=O)COC(C(F)(F)F)C(F)(F)F)cc12` [Compound 157], the EC50 is greater than 1 µM.
The same measure, in the same setting: the result for `COc1cccc2[nH]c(C(=O)N[C@@H](CC(C)C)C(=O)N[C@@H](C[C@@H]3CCNC3=O)C(=O)COCC(F)(F)F)cc12` [Compound 162, 4-methoxy-N-((S)-4-methyl-1-oxo-1-(((S)-3-oxo-1-((S)-2-oxopyrrolidin-3-yl)-4-(2,2,2-trifluoroethoxy)butan-2-yl)amino)pentan-2-yl)-1H-indole-2-carboxamide] reads greater than 1 µM.

Staying with this experiment, now noted: Severe acute respiratory syndrome coronavirus 2, HeLa-ACE2, 24 h, HeLa-ACE2 cells, SARS-CoV-2 infection, 24 h; class symbols; read-out: EC50, uM (Hela).
Take `CC(C)C[C@H](NC(=O)C(=O)Nc1ccccc1F)C(=O)N[C@@H](C[C@@H]1CCNC1=O)C(=O)COc1cc(C(F)(F)F)on1` [Compound 141, N1-(2-fluorophenyl)-N2-((S)-4-methyl-1-oxo-1-(((S)-3-oxo-1-((S)-2-oxopyrrolidin-3-yl)-4-((5-(trifluoromethyl)isoxazol-3-yl)oxy)butan-2-yl)amino)pentan-2-yl)oxalamide]: the EC50 fell in the range of 0.5 to 1 µM.
Same read-out and setting: the result for `COCc1ccccc1NC(=O)C(=O)N[C@@H](CC(C)C)C(=O)N[C@@H](C[C@@H]1CCNC1=O)C(=O)COc1c(F)c(F)cc(F)c1F` [Compound 143, N1-(2-(methoxymethyl)phenyl)-N2-((S)-4-methyl-1-oxo-1-(((S)-3-oxo-1-((S)-2-oxopyrrolidin-3-yl)-4-(2,3,5,6-tetrafluorophenoxy)butan-2-yl)amino)pentan-2-yl)oxalamide] reads 0.05 to 0.2 µM.
On the same count and under the same terms, the figure for `CC(C)C[C@H](NC(=O)C(=O)N[C@H]1CCCc2ccccc21)C(=O)N[C@@H](C[C@@H]1CCNC1=O)C(=O)COc1c(F)c(F)cc(F)c1F` [Compound 145, N^1—((S)-4-methyl-1-oxo-1-(((S)-3-oxo-1-((S)-2-oxopyrrolidin-3-yl)-4-(2,3,5,6-tetrafluorophenoxy)butan-2-yl)amino)pentan-2-yl)-N^2—((S)-1,2,3,4-tetrahydronaphthalen-1-yl)oxalamide] is 0.2 to 0.5 µM; for `CC(C)C[C@H](NC(=O)[C@H](O)c1cccc(Cl)c1)C(=O)N[C@@H](C[C@@H]1CCNC1=O)C(=O)COc1c(F)c(F)cc(F)c1F` [Compound 146, (S)-2-((R)-2-(3-chlorophenyl)-2-hydroxyacetamido)-4-methyl-N-((S)-3-oxo-1-((S)-2-oxopyrrolidin-3-yl)-4-(2,3,5,6-tetrafluorophenoxy)butan-2-yl)pentanamide] it is 0.05 to 0.2 µM; for `CC(C)C[C@H](NC(=O)C(=O)N[C@@H]1CCCc2ccccc21)C(=O)N[C@@H](C[C@@H]1CCNC1=O)C(=O)COc1c(F)c(F)cc(F)c1F` [Compound 147, N1-((S)-4-methyl-1-oxo-1-(((S)-3-oxo-1-((S)-2-oxopyrrolidin-3-yl)-4-(2,3,5,6-tetrafluorophenoxy)butan-2-yl)amino)pentan-2-yl)-N2-((R)-1,2,3,4-tetrahydronaphthalen-1-yl)oxalamide] it is 0.5 to 1 µM.
Turning to `Cc1ccccc1NC(=O)C(=O)N[C@@H](Cc1ccccn1)C(=O)N[C@@H](C[C@@H]1CCNC1=O)C(=O)COc1c(F)c(F)cc(F)c1F` [Compound 148, N1-((S)-1-oxo-1-(((S)-3-oxo-1-((S)-2-oxopyrrolidin-3-yl)-4-(2,3,5,6-tetrafluorophenoxy)butan-2-yl)amino)-3-(pyridin-2-yl)propan-2-yl)-N2-(o-tolyl)oxalamide], the EC50 fell in the range of 0.05 to 0.2 µM.
As to `CC(C)C[C@H](NC(=O)C(=O)N1CCCc2ccccc21)C(=O)N[C@@H](C[C@@H]1CCNC1=O)C(=O)COc1c(F)c(F)cc(F)c1F` [Compound 149, (S)-2-(2-(3,4-dihydroquinolin-1(2H)-yl)-2-oxoacetamido)-4-methyl-N-((S)-3-oxo-l-((S)-2-oxopyrrolidin-3-yl)-4-(2,3,5,6-tetrafluorophenoxy)butan-2-yl)pentanamide], the EC50 was in the range of 0.05 to 0.2 µM.
The same measure, in the same setting: the result for `CC(C)C[C@H](NC(=O)O[C@H]1CO[C@H]2OCC[C@H]21)C(=O)N[C@@H](C[C@@H]1CCNC1=O)C(=O)COc1c(F)c(F)cc(F)c1F` [Compound 150, (3R,3aS,6aR)-hexahydrofuro[2,3-b]furan-3-yl ((S)-4-methyl-1-oxo-1-(((S)-3-oxo-1-((S)-2-oxopyrrolidin-3-yl)-4-(2,3,5,6-tetrafluorophenoxy)butan-2-yl)amino)pentan-2-yl)carbamate] reads 0.2 to 0.5 µM; that for `CC(C)C[C@H](NC(=O)C(=O)NC1CCC(F)(F)CC1)C(=O)N[C@@H](C[C@@H]1CCNC1=O)C(=O)COc1c(F)c(F)cc(F)c1F` [Compound 151, N^1-(4,4-difluorocyclohexyl)-N^2—((S)-4-methyl-1-oxo-1-(((S)-3-oxo-1-((S)-2-oxopyrrolidin-3-yl)-4-(2,3,5,6-tetrafluorophenoxy)butan-2-yl)amino)pentan-2-yl)oxalamide], 0.05 to 0.2 µM; that for `Cc1cccc(C)c1NC(=O)C(=O)N[C@@H](CC(C)C)C(=O)N[C@@H](C[C@@H]1CCNC1=O)C(=O)COC(F)(F)F` [Compound 152, N1-(2,6-dimethylphenyl)-N2-((S)-4-methyl-1-oxo-1-(((S)-3-oxo-1-((S)-2-oxopyrrolidin-3-yl)-4-(trifluoromethoxy)butan-2-yl)amino)pentan-2-yl)oxalamide], less than 0.05 µM.
Consider `CC(C)C[C@H](NC(=O)c1ccc2c(c1)OC(F)(F)O2)C(=O)N[C@@H](C[C@@H]1CCNC1=O)C(=O)COC(F)(F)F` [Compound 153, 2,2-difluoro-N-((S)-4-methyl-1-oxo-1-(((S)-3-oxo-1-((S)-2-oxopyrrolidin-3-yl)-4-(trifluoromethoxy)butan-2-yl)amino)pentan-2-yl)benzo[d][l,3]dioxole-5-carboxamide], for which the EC50 is less than 0.05 µM.
Same read-out and setting: the result for `COc1ccc(C(C)=O)cc1CC(=O)N[C@@H](CC(C)C)C(=O)N[C@@H](C[C@@H]1CCNC1=O)C(=O)COc1c(F)c(F)cc(F)c1F` [Compound 154, (S)-2-(2-(5-acetyl-2-methoxyphenyl)acetamido)-4-methyl-N—((S)-3-oxo-1-((S)-2-oxopyrrolidin-3-yl)-4-(2,3,5,6-tetrafluorophenoxy)butan-2-yl)pentanamide] reads less than 0.05 µM.
For the molecule `CC(C)C[C@H](NC(=O)c1nc2ccccc2[nH]1)C(=O)N[C@@H](C[C@@H]1CCNC1=O)C(=O)COC(F)(F)F` [Compound 156, N-((S)-4-methyl-1-oxo-1-(((S)-3-oxo-1-((S)-2-oxopyrrolidin-3-yl)-4-(trifluoromethoxy)butan-2-yl)amino)pentan-2-yl)-1H-benzo[d]imidazole-2-carboxamide], the EC50 is less than 0.05 µM.
Still for that read-out and setting: the figure for `COc1cccc2[nH]c(C(=O)N[C@@H](CC(C)C)C(=O)N[C@@H](C[C@@H]3CCNC3=O)C(=O)COC(F)(F)F)cc12` [Compound 158, 4-methoxy-N—((S)-4-methyl-1-oxo-1-(((S)-3-oxo-1-((S)-2-oxopyrrolidin-3-yl)-4-(trifluoromethoxy)butan-2-yl)amino)pentan-2-yl)-1H-indole-2-carboxamide] is less than 0.05 µM.
The same measure, in the same setting: the figure for `CC(C)C[C@H](NC(=O)C(=O)Nc1c(C(C)C)cccc1C(C)C)C(=O)N[C@@H](C[C@@H]1CCNC1=O)C(=O)COC(F)(F)F` [Compound 159, Nl-(2,6-diisopropylphenyl)-N2-((S)-4-methyl-1-oxo-1-(((S)-3-oxo-1-((S)-2-oxopyrrolidin-3-yl)-4-(trifluoromethoxy)butan-2-yl)amino)pentan-2-yl)oxalamide] is less than 0.05 µM; for `O=C(N[C@@H](CC1CC1)C(=O)N[C@@H](C[C@@H]1CCNC1=O)C(=O)COC(F)(F)F)c1cc(-c2ccccc2F)on1` [Compound 160, N-((S)-3-cyclopropyl-1-oxo-1-(((S)-3-oxo-1-((S)-2-oxopyrrolidin-3-yl)-4-(trifluoromethoxy)butan-2-yl)amino)propan-2-yl)-5-(2-fluorophenyl)isoxazole-3-carboxamide] it is less than 0.05 µM; for `O=C(N[C@@H](CC1CC1)C(=O)N[C@@H](C[C@@H]1CCNC1=O)C(=O)COC(F)(F)F)c1cc2cc(F)ccc2[nH]1` [Compound 161, N-((S)-3-cyclopropyl-1-oxo-1-(((S)-3-oxo-1-((S)-2-oxopyrrolidin-3-yl)-4-(trifluoromethoxy)butan-2-yl)amino)propan-2-yl)-5-fluoro-1H-indole-2-carboxamide] it is less than 0.05 µM.
The same measure, in the same setting: the result for `CC(C)C[C@H](NC(=O)C(=O)NC1CCCCC1)C(=O)N[C@@H](C[C@@H]1CCNC1=O)C(=O)COC(F)(F)F` [Compound 163, N1-cyclohexyl-N2-((S)-4-methyl-1-oxo-1-(((S)-3-oxo-1-((S)-2-oxopyrrolidin-3-yl)-4-(trifluoromethoxy)butan-2-yl)amino)pentan-2-yl)oxalamide] reads less than 0.05 µM.

Still in this experiment, the particulars now being: Severe acute respiratory syndrome coronavirus 2, HeLa-ACE2, 24 h; […]; cells given as a bound; read-out: EC50, uM (Hela).
Consider `CC(=O)N1CCC(NC(=O)C(=O)N[C@@H](CC(C)C)C(=O)N[C@@H](C[C@@H]2CCNC2=O)C(=O)COc2c(F)c(F)cc(F)c2F)CC1` [Compound 140, Nl-(l-acetylpiperidin-4-yl)-N2-((S)-4-methyl-1-oxo-1-(((S)-3-oxo-1-((S)-2-oxopyrrolidin-3-yl)-4-(2,3,5,6-tetrafluorophenoxy)butan-2-yl)amino)pentan-2-yl)oxalamide], for which the EC50 was greater than 1 µM.

The same experiment, now with this note: Severe acute respiratory syndrome coronavirus 2, HeLa-ACE2, 24 h; read-out: EC50, uM (Hela).
With `CC(C)C[C@H](NC(=O)C(=O)Nc1ccccc1F)C(=O)N[C@@H](CCCCN)C(=O)COc1c(F)c(F)cc(F)c1F` [Compound 142, N^1—((S)-1-(((S)-7-amino-2-oxo-1-(2,3,5,6-tetrafluorophenoxy)heptan-3-yl)amino)-4-methyl-1-oxopentan-2-yl)-N^2-(2-fluorophenyl)oxalamide hydrochloride], the EC50 was less than 0.05 µM.
